What all share (type): biochemical
One assay addresses T1, DYRK3 (Homo sapiens, UniProt O43781).
T1 sequence (O43781 1-588): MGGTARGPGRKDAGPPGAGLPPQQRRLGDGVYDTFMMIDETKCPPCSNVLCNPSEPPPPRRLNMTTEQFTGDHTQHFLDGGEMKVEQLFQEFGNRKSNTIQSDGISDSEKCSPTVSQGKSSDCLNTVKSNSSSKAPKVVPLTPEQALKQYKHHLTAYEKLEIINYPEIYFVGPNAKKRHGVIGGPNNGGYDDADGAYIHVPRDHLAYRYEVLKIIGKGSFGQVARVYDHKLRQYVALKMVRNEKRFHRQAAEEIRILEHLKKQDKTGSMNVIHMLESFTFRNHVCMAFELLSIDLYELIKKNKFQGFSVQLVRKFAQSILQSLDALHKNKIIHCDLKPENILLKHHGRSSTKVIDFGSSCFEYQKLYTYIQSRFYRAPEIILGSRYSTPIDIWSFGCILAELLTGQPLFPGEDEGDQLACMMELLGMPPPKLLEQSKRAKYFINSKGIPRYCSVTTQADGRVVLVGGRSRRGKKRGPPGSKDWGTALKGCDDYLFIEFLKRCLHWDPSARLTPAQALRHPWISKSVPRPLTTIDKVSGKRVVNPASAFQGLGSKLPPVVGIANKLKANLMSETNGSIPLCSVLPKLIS
Briefly: Kinase screen: DYRK3 assay. Here is the method: (§1) Generally, the same procedure was used for all assays. Since the total assay volume was 25.5 microliters, 0.5 microliters of inhibitors at 51× assay concentration were added to the plates before any other addition.
(§2) The basic procedure was to add 0.5 microliters inhibitor/control in DMSO to plate. Fifteen microliters of enzyme/substrate/buffer mix were added and incubated for 5 min. Ten microliters MgATP at the relevant concentration were added and incubated for 30 min. The assay was stopped by adding 5 microliters of 3% orthophosphoric acid. The assay was transferred to a p81 filter plate and read in a scintillation counter of 30 sec/well. Note that this assay procedure was not followed for MKK1, which instead involved a two-step assay, and PKC alpha, which required the addition of lipid vesicles.
DYRK3 assay: DYRK3 (5-20 mU of diluted in 50 mM Tris pH7.5, 0.1 mM EGTA) was assayed against Woodtide ([…]) (SEQ ID NO: 29) in a final volume of 25.5 μl containing 50 mM Tris pH 7.5, 0.1 mM EGTA, 350 μM substrate peptide, 10 mM Magnesium acetate and 0.005 mM [33P-g-ATP] (50-1000 cpm/pmole) and incubated for 30 min at room temperature. Assays were stopped by addition of 5 μl of 0.5 M (3%) orthophosphoric acid and then harvested onto P81 Unifilter plates with a wash buffer of 50 mM orthophosphoric acid.

The next assay concerns the target PKA (Homo sapiens, UniProt P17612). Briefly: Kinase screen: PKA assay. Here is the method: as §1, §2
PKA assay: PKA (5-20 mU diluted in 20 mM MOPS pH 7.5, 1 mM EDTA, 0.01% Brij35, 0.1% b-mercaptoethanol, 1 mg/ml BSA) was assayed against Kemptide (LRRASLG) (SEQ ID NO: 6) in a final volume of 25.5 μl containing 8 mM MOPS pH 7.5, 0.2 mM EDTA, 30 μM substrate peptide, 10 mM magnesium acetate and 0.005 mM [33P-g-ATP] (50-1000 cpm/pmole) and incubated for 30 min at room temperature. Assays were stopped by addition of 5 μl of 0.5 M (3%) orthophosphoric acid and then harvested onto P81 Unifilter plates with a wash buffer of 50 mM orthophosphoric acid.

A further assay concerns the target T2, CHK1 (Homo sapiens, UniProt O14757).
T2 sequence (O14757 1-476): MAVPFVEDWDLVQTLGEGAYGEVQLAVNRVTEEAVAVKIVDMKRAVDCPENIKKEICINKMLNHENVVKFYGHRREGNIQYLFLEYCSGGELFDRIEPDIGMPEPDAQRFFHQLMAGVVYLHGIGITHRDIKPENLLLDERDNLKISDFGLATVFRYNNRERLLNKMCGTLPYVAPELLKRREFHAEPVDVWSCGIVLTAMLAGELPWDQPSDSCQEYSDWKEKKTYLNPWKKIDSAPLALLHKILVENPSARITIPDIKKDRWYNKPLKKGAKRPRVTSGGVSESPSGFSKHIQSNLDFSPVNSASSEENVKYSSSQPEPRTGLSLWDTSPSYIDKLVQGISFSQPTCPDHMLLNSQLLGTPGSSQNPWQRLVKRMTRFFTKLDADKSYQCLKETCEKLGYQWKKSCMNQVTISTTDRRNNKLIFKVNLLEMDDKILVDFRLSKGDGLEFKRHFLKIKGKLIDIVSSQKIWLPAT
Briefly: Kinase screen: CHK1 assay. As for the experimental part: as §1, §2
CHK1 assay: CHK1 (5-20 mU diluted in 20 mM MOPS pH 7.5, 1 mM EDTA, 0.1% b-mercaptoethanol, 0.01% Brij-35, 5% glycerol, 1 mg/ml BSA) was assayed against CHKtide substrate peptide ([…]) (SEQ ID NO: 12) in a final volume of 25.5 μl containing 8 mM MOPS pH 7.0, 0.2 mM EDTA, 200 μM CHKtide, 10 mM magnesium acetate and 0.02 mM [33P-g-ATP] (50-1000 cpm/pmole) and incubated for 30 min at room temperature Assays were stopped by addition of 5 μl of 0.5 M (3%) orthophosphoric acid and then harvested onto P81 Unifilter plates with a wash buffer of 50 mM orthophosphoric acid.

Another assay deals with JNK2 (Homo sapiens, UniProt P45984). Briefly: Kinase screen: JNK2 assay. Here is the method:
as §1, §2
JNK2 assay: JNK2 1(5-20 mU diluted in 50 mM Tris (pH 7.5), 0.1 mM EGTA, 1 mg/ml BSA, 0.1% b-mercaptoethanol) was assayed against ATF2 (activating transcription factor in a final volume of 25.5 μl in 50 mM Tris pH 7.5, 0.1 mM EGTA, 0.1% b-Mercaptoethanol, ATF2 (3 μM), 10 mM magnesium acetate and 0.02 mM [33P-g-ATP] (500-1000 cpm/pmole) and incubated for 30 min at room temperature. Assays were stopped by addition of 5 μl of 0.5 M (3%) orthophosphoric acid and then harvested onto P81 Unifilter plates with a wash buffer of 50 mM orthophosphoric acid.

[1] abbreviates: 10 micromolar compound, read-out: mean activity remaining (as a percentage of the original activity), DYRK 3.
Where [2] appears, read: 10 micromolar compound, read-out: mean activity remaining (as a percentage of the original activity), PKA.
Setting [3] is: 10 micromolar compound, read-out: mean activity remaining (as a percentage of the original activity), CHK 1.
Setting [4] is: 10 micromolar compound, read-out: mean activity remaining (as a percentage of the original activity), JNK2.

We go through 5 compounds from US8067424B2, “Selective inhibitors for cyclin-dependent kinases” (Emory University, priority 2007, dated 2011).

One may read the remaining activity as the signal under treatment as a percentage of the control signal.

Read-outs that look alike come from different tables or passages of the source.

JNK2, sequence (P45984 whole entry, species assumed): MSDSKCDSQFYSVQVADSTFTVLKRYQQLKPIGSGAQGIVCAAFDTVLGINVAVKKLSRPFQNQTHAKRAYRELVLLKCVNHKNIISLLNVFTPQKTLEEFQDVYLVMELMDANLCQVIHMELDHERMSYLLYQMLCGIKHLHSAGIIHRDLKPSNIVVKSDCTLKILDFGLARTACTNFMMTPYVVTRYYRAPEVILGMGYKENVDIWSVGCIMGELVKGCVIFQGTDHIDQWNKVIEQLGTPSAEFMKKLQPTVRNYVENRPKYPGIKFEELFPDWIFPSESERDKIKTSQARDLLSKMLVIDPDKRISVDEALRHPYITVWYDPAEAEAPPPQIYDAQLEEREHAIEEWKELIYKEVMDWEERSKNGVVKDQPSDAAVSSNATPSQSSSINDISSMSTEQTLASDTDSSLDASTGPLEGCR

Consider `CC(C)c1cnn2c(NCc3ccccc3)cc(NCCCCCCCN)nc12` [BS-181], for which the remaining activity at 10 µM was determined as 87% at DYRK3 (DYRK3, 10 μM, read-out: Mean Remaining Enzyme Activity (%)); 110% on PKA (PKA, 10 μM, read-out: Mean Remaining Enzyme Activity (%)); 80% at CHK1 (CHK1, 10 μM, read-out: Mean Remaining Enzyme Activity (%)); 90% at JNK2 (JNK2, 10 μM, read-out: Mean Remaining Enzyme Activity (%)).
`C=C[C@H](CO)Nc1cc(NCc2ccccc2)n2ncc(C(C)C)c2n1` [ICEC0065]: the remaining activity at 10 µM came out at 86% on DYRK3 (setting [1]), 107% at PKA (setting [2]), 87% at CHK1 (setting [3]) and 88% on JNK2 (setting [4]).
For the compound `CC(C)c1cnn2c(NCc3ccccc3)cc(N[C@@H](CO)[C@H](O)CO)nc12` [ICEC0318, (3S)-3-(7-(Benzylamino)-3-isopropylpyrazolo[1,5-a]pyrimidin-5-ylamino)butane-1,2,4-triol], the remaining activity at 10 µM on DYRK3 (setting [1]) was 88%; on PKA (setting [2]), 93%; on CHK1 (setting [3]), 98%; at JNK2 (setting [4]), 94%.
In the case of `CC(C)c1cnn2c(NCc3ccccc3F)cc(NCCCCCN)nc12` [ICEC-0232], the “mean activity remaining (as a percentage of the original activity), DYRK 3” value on DYRK3 (10 micromolar compound) was determined as 60%. Moreover, the “mean activity remaining (as a percentage of the original activity), PKA” value on PKA (10 micromolar compound) is listed as 96%. Also, at CHK1 (10 micromolar compound), the “mean activity remaining (as a percentage of the original activity), CHK 1” value is recorded as 87%. Besides, the “mean activity remaining (as a percentage of the original activity), JNK2” value on JNK2 (10 micromolar compound) was 89%.
For the compound `CC[C@H](CO)Nc1cc(NCc2ccccc2)n2ncc(C(C)C)c2n1` [ICEC0067], the remaining activity at 10 µM on DYRK3 (setting [1]) worked out at 90%; at PKA (setting [2]), 93%; on CHK1 (setting [3]) it was 100%; at JNK2 (setting [4]) it was 97%.
